Patent publication US20200278355A1, “CONJUGATED PROTEINS AND USES THEREOF” (THE SCRIPPS RESEARCH INSTITUTE, priority 2017, published 2020)

Key:
[1] = target: T1, interactions of FLAG-tagged RBM45 or SNW1 with endogenous NR0B1 (Homo sapiens, UniProt P51843); experiment: NR0B1 protein interactions in compound-treated cells (FLAG immunoprecipitation, immunoblot); assay type: cell-based; conditions: for blockade of interactions of FLAG-tagged RBM45 or SNW1 with endogenous NR0B1: KEAP1-null HEK293T cells and KEAP1-mutant NSCLC cells; for blockade of interactions of FLAG-tagged RBM45 or SNW1 with endogenous NR0B1 / inhibition of NR0B1 interaction with FLAG-RBM45 or FLAG-SNW1: 3 h; for inhibition of NR0B1 interaction with FLAG-RBM45 or FLAG-SNW1: KEAP1-null HEK293T cells
T1 construct: endogenous in cells; host or cells: KEAP1-null HEK293T cells stably expressing FLAG-RBM45 or FLAG-SNW1
T1 sequence (P51843 1-470): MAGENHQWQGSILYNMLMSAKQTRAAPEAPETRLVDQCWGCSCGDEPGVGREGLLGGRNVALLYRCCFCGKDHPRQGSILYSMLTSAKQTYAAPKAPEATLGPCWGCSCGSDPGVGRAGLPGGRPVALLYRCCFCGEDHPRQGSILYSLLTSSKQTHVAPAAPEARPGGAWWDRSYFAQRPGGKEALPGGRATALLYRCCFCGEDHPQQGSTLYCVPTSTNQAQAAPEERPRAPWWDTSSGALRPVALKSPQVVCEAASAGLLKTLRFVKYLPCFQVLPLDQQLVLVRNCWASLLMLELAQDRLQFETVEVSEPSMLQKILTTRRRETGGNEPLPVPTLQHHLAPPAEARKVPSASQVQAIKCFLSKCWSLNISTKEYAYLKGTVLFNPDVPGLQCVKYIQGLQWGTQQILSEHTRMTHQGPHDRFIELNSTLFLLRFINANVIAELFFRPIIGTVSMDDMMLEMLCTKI
Method: (§1) Confluent 10 cm plates of indicated cell lines were rinsed once with warm PBS and incubated in serum/dye-free RPMI with indicated compounds or vehicle for 3 h at 37° C. Cells were washed once ice-cold PBS and snap frozen.
Cells were rinsed once with ice-cold PBS, and lysed by sonication in Triton IP buffer. Lysates were clarified by centrifugation at 16,000×g for 10 min. Samples were normalized to 1 mg ml^−1 and boiled following the addition of sample buffer. For FLAG- or HA-immunoprecipitations, FLAG or HA resins (30 μL, 50:50 slurry) were added to the pre-cleared lysates and incubated with rotation for 3 hours at 4° C. Following immunoprecipitation, the beads were washed once with IP buffer followed by 3 times with IP buffer containing 500 mM NaCl. Loading buffer (40 μL) was added to the immunoprecipitated proteins which were subsequently denatured by boiling. Proteins were resolved by SDS-PAGE, analyzed by immunoblotting and relative band intensities were quantified using ImageJ software.
Next it was asked whether BPK-26 and BPK-29 inhibited NR0B1 protein interactions in cells using two complementary systems. […] In both cell systems, BPK-26 and BPK-29, but not control compounds, blocked the interactions of FLAG-tagged RMB45 or SNW1 with endogenous NR0B1 (FIG. 6C and FIG. 12E-F).

RBM45-NR0B1 interaction = target: T2, RBM45-NR0B1 interaction (Homo sapiens, UniProt P51843); experiment: RBM45-NR0B1 interaction in NSCLC cells stably expressing FLAG-RBM45 (FLAG immunoprecipitation); assay type: cell-based; conditions: 3 h; for blockade of the RBM45-NR0B1 interaction: H460 cells; for blockade of NR0B1 binding to FLAG-RBM45: H2122 and A549 cells
T2 construct: endogenous in cells; host or cells: H460 cells (also H2122 and A549) stably expressing FLAG-RBM45 by lentiviral transduction (FLAG-pLJM1)
T2 sequence (P51843 1-470): T1 sequence (P51843 1-470)
Method: FIG. 6A-FIG. 6F show characterization of NR0B1 ligands in KEAP1-mutant NSCLC cells. […] Dashed lines designate R values≥3 (DMSO/compound), which was used as a cutoff to define cysteines liganded by the indicated compounds. Insets show MS1 profiles for C274 in NR0B1 for DMSO (blue) versus compound (red) treatment. Data are from individual experiments representative of at least three biological replicates. […] (See also Table 5). […] H460 cells stably expressing FLAG-RBM45 were incubated with indicated compounds for 3 h, whereupon FLAG immunoprecipitates were performed and analyzed by immunoblotting. […] Experiments performed as described in (C). […] Dashed line designates R values (light/heavy) of <8, which was used as a cutoff for fast-turnover proteins. […] Charts comparing fraction of NRF2-regulated genes (as determined by RNAseq) for which the corresponding proteins are designated as fast or slow turnover (as determined in G) further divided into groups showing reduced expression (left) or not (right) on day 1 following NRF2 knockdown (as determined by isoTOP-ABPP).
FIG. 12A-FIG. 12G show characterization of NR0B1 ligands in Keap1-mutant NSCLC cells. […] Data obtained from isoTOP-ABPP experiments of H460 cells treated with compound (red traces) or DMSO (blue traces) for 3 h. […] Shown are MS1 profiles for quantified cysteines in NR0B1 following treatment with BPK-29 (40 μM, red; top) BPK-26 (40 μM, red; bottom) or DMSO (blue) for 3 h. […] KEAP1-null HEK293T cells stably expressing FLAG-RBM45 or FLAG-SNW1 were incubated with the indicated compounds for 3 h, after which FLAG immunoprecipitates were prepared from cell lysates. Immunoprecipitates and lysates were analyzed by immunoblotting for the indicated proteins. Dashed lines represent a lane that was cropped from this immunoblot. […] H2122 or A549 cells stably expressing FLAG-RBM45 were incubated with the indicated compounds for 3 h, after which FLAG immunoprecipitates were prepared. Immunoprecipitates and lysates were analyzed as described in (E). […] H2122 cells stably expressing FLAG-RBM45 or A549 cells stably expressing FLAG-SNW1 were incubated with indicated compounds for 3 h and FLAG immunoprecipitates were prepared and analyzed as described in (E).
as §1
Cells were rinsed once with ice-cold PBS, and lysed by sonication in Triton IP buffer. Lysates were clarified by centrifugation at 16,000×g for 10 min. […] Proteins were resolved by SDS-PAGE, analyzed by immunoblotting and relative band intensities were quantified using ImageJ software.

Row | blockade of interactions of FLAG-tagged RBM45 or SNW1 with endogenous NR0B1 [1] | inhibition of NR0B1 interaction with FLAG-RBM45 or FLAG-SNW1 [1] | blockade of the RBM45-NR0B1 interaction (RBM45-NR0B1 interaction) | blockade of NR0B1 binding to FLAG-RBM45 (RBM45-NR0B1 interaction) | relative potency for blockade of NR0B1-protein interactions ([1]; in cells) | Compound
1 | blocked | inhibit | block | block |  | O=C(CCl)N(Cc1cccc(Cl)c1F)c1ccc(Cl)nc1 [BPK-26, 2-chloro-N-(3-chloro-2-fluorobenzyl)-N-(6-chloropyridin-3-yl)acetamide]
2 | blocked | inhibit | block | block | better potency than BPK-26 | O=C(c1ccc(N2CCOCC2)cc1)N1CCCC(N(Cc2ccccc2)C(=O)CCl)CC1 (stereo not drawn) [BPK-29, N-benzyl-2-chloro-N-(1-(4-morpholinobenzoyl)azepan-4-yl)acetamide]
